These results are taken from publication PMC5062073, “Cellular uptake of a cystine-knot peptide and modulation of its intracellular trafficking” (Scientific Reports, 2016).

For data set [1] the following is noted: SGF with pepsin, pH 1.2, 37 °C, peptide 0.3 mg/ml, after several days; LC/MS, A214nm peak area vs internal standard. The protocol: Peptides were incubated at a concentration of 0.3 mg/ml in simulated gastric fluid at 37 °C for the indicated times. To prepare simulated gastric fluid, 2 g of sodium chloride, 43 mg of sodium thaurocholate, 16 mg of lecithin and 100 mg of pepsin were dissolved in 1 L of Milli-Q water (18.2 MΩ.cm^−1) and adjusted to pH 1.2 with 37% hydrochloric acid. At the indicated time points, 10 μl (3 μg) aliquots were removed from the reaction, quenched with 0.25 M NaOH and then mixed with 2.6 μg of the internal standard. Samples were immediately analyzed by analytical LC/MS (Agilent 1200 series) and the area under the A214nm peak was quantified.

For data set [2], the target named is T1, trypsin (Bos taurus, UniProt P00760).
T1 construct: gene PRSS1
T1 sequence (P00760 24-246): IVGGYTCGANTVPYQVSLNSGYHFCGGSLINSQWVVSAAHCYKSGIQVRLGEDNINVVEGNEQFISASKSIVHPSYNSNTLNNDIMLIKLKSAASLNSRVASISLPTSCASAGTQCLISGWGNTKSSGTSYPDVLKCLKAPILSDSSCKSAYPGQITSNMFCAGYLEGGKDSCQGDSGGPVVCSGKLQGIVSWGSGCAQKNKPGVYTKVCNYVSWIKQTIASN
The experiment in a line: Trypsin enzymatic assay. Type of data set: biochemical. The procedure: Assays were done as described earlier with slight modification. Briefly, normalized proteolytic activity of trypsin (2.3 pM) toward tosyl-GPR-AMC substrate (5 μM) was measured for 2 h after pre-incubation of the peptides with protease for 1 h at room temperature. The data were plotted and fitted using KaleidaGraph v3.6 software. Apparent […] (Ki^app) was determined from at least three independent measurements.

Data set [3] deals with trypsin (UniProt P00760). The experiment in a line: enzyme inhibition assay (trypsin proteolytic activity on a fluorogenic substrate); apparent; trypsin 2.3 pM, tosyl-GPR-AMC substrate 5 uM, activity measured for 2 h after pre-incubation of the peptides with protease for 1 h at room temperature.

As to `CC[C@H](C)[C@@H]1NC(=O)[C@H](CCCNC(=N)N)NC(=O)[C@@H]2CCCN2C(=O)[C@@H](NC(=O)CNC(=O)[C@H](CO)NC(=O)CN)CSSC[C@@H]2NC(=O)CNC(=O)[C@H](C)NC(=O)[C@H](CC(C)C)NC(=O)[C@@H]3CSSC[C@@H](C(=O)NCC(=O)NCC(=O)N[C@@H](CC(N)=O)C(=O)N[C@@H](CO)C(=O)O)NC(=O)[C@H](Cc4ccccc4)NC(=O)CNC(=O)[C@H](CC(N)=O)NC(=O)[C@@H]4CCCN4C(=O)CNC(=O)[C@H](CSSC[C@H](NC(=O)[C@H](CCCNC(=N)N)NC(=O)[C@H](CCSC)NC(=O)[C@H](CC(C)C)NC1=O)C(=O)N[C@@H](CCCCN)C(=O)N[C@@H](CCC(N)=O)C(=O)N[C@@H](CC(=O)O)C(=O)N[C@@H](CO)C(=O)N[C@@H](CC(=O)O)C(=O)N3)NC(=O)[C@H](C(C)C)NC2=O` [rEETI-II], the “remaining in simulated gastric fluid” value in data set [1] was 50%. Moreover, at trypsin [2], the Ki turned out to be 0.16 ± 0.01 nM. For “Alexa488-labeled recombinant EETI-II (peptide)”, the Ki with trypsin [3] was 0.71 nM. Same read-out and setting: the same measure for “recombinant EETI-II (Ecballium elaterium trypsin inhibitor II) (peptide)”: 0.16 nM.
